Read-outs that look alike come from different tables or passages of the source. One block for each molecule: values may come before it. Numbered stars: 1 amine (or outer) side, 2 acyl side, 3 side chain; on linkers, the order of the positions; unused ones are H or OH. Bridge positions count the residues as written; N and C are the ends. Square brackets hold non-standard residues; d marks the D form. Triazole bridges read from a SMILES are 1,4-linked. Ends that are not written are not given here. Peptide text beside a SMILES is read from it. Orn(N3) = [N-]=[N+]=NCCC[C@H](N)C(=O)O; S5 = C=CCCC[C@](C)(N)C(=O)O; X1 = c1c(C[*:2])nnn1CC[*:1]; Pra = C#CC[C@H](N)C(=O)O
Legend:
[1] = test system: IR; conditions: cited from earlier work; for agonistic or antagonistic activities: peptides tested separately
[2] = test system: IR; conditions: cited from earlier work
Excerpt: (§1) Scientific teams from Novo Nordisk A/S and Antyra, Inc., used the technique of expressing libraries of peptide sequences on the surface of bacteriophage and, by testing their binding affinities, discovered a number of peptides that bound very efficiently to IR while activating or inhibiting it.[19], [20]

[3] = test system: insulin effect on plasma glucose; conditions: cited from earlier work
Excerpt: as §1, with “[20] […] One of these peptides was […] or S592, which bound only to bindi ...” for “[20]”

[4] = test system: insulin‐stimulated lipogenesis in cells; conditions: cited from earlier work
Excerpt: as §1, with “[20] […] One of these peptides was […] or S592, which bound only to bindi ...” for “[20]”

[5] = target: T1, IR‐A (Homo sapiens, UniProt P06213); assay: Receptor-binding: competition with [125I]-monoiodotyrosyl-TyrA14-insulin for IR-A in IM-9 cell membranes; conditions: cell membranes of human IM-9 lymphocytes, each curve in duplicate, Kd from at least three binding curves, ± S.D., SD
T1 construct: for IR‐A in cell membranes of human IM‐9 lymphocytes (ATCC); host or cells: human IM-9 lymphocytes (cell membranes)
T1 sequence (P06213 28-1370 isoform P06213-2 limits assumed): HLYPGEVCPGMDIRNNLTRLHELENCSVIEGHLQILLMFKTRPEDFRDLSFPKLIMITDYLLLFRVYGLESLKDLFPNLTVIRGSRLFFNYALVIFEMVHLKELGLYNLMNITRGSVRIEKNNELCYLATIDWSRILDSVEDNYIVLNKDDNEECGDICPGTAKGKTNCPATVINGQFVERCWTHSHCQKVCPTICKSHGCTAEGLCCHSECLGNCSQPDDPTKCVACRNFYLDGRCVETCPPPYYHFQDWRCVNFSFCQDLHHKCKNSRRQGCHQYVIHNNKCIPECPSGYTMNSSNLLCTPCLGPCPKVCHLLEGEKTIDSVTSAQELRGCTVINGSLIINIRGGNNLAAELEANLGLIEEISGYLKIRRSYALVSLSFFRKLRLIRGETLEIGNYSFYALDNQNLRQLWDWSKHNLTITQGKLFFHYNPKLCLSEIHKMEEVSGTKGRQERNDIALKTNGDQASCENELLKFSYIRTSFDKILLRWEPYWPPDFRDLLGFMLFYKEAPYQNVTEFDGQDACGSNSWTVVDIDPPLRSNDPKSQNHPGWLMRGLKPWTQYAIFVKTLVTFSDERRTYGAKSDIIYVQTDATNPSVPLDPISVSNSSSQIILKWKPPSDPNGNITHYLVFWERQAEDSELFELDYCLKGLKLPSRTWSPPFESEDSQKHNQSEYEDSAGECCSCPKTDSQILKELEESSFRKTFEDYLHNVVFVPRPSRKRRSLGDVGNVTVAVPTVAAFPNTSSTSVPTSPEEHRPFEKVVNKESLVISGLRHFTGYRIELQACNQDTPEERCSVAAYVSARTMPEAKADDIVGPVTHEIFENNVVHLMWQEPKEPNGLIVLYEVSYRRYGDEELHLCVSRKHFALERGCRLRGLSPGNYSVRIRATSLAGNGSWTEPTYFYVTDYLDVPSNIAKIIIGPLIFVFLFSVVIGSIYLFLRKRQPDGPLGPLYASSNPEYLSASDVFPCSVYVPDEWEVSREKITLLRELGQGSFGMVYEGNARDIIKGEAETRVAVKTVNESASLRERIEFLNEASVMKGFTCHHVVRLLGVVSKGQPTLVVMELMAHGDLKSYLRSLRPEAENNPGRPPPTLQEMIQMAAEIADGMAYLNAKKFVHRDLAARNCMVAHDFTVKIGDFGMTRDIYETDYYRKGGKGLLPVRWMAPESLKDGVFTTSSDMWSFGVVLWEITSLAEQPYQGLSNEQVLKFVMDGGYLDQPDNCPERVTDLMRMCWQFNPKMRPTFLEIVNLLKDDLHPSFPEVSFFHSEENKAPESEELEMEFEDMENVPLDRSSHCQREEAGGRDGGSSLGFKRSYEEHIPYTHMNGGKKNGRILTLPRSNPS
T1 sequence (P06213 763-1382 partner limits assumed): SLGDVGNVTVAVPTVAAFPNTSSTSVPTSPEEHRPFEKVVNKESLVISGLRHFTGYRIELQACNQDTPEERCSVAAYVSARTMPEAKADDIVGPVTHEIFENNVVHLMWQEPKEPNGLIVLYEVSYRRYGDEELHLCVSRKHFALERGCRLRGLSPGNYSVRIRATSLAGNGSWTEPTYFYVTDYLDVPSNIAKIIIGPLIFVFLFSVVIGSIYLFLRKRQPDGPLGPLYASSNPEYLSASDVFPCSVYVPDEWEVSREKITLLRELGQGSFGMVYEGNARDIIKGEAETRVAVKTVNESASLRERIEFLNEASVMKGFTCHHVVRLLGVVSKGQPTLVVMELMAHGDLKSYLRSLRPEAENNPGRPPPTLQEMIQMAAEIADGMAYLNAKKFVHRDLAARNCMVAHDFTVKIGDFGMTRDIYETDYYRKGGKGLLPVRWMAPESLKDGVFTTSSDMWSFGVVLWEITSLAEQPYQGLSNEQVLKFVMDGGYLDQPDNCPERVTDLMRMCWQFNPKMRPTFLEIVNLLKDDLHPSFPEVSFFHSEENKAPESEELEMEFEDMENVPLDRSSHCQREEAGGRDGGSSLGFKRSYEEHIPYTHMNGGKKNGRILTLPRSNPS
Procedure: The binding curve of each analog was determined in duplicate, and the final dissociation constant (K d) was calculated from at least three binding curves.

Molecule: SLEEEWAQIQSEVWGRGSPSYC [Cys → Ser in S592, Site 2 peptide with Cys-to-Ser mutations produced by Brandt et al]
insulin signal remaining ([1]; 1 nM insulin, peptide at the concentration 100 nM): 50–60%
agonistic or antagonistic activities [1]: did not detect any agonistic or antagonistic activities

Molecule: SLEEEWAQIE C EVWGRG C PSY (disulfide) [S592]
activation of the receptor [2]: does not activate the receptor
Kd ([2]; read-out: K d for binding to the IR): 1.7 nM

Molecule: GSLDESFYDWFERQLGGGSGGSSLEEEWAQIQ C EVWGRG C PSY‐amide (disulfide) [S661, Site 1–linker–Site 2 fusion peptide with amidated C-terminus, IR antagonist]
binding affinities for IR [2]: native insulin‐like binding affinities
inhibition of the insulin effect on plasma glucose in mice [3]: fully inhibit
inhibition of insulin‐stimulated lipogenesis in cells [4]: fully inhibit

Kd [5]: 25 ± 7 nM
Molecule: CC[C@H](C)[C@H](NC(=O)[C@H](CCC(N)=O)NC(=O)[C@H](C)NC(=O)[C@H](Cc1c[nH]c2ccccc12)NC(=O)[C@H](CCC(=O)O)NC(=O)[C@H](CCC(=O)O)NC(=O)[C@H](CCC(=O)O)NC(=O)[C@H](CC(C)C)NC(=O)[C@@H](N)CO)C(=O)N[C@@H](CCC(=O)O)C(=O)N[C@H]1CSCCn2cc(nn2)CSC[C@@H](C(=O)N2CCC[C@H]2C(=O)N[C@@H](CO)C(N)=O)NC(=O)CNC(=O)[C@H](CCCNC(=N)N)NC(=O)CNC(=O)[C@H](Cc2c[nH]c3ccccc23)NC(=O)[C@H](C(C)C)NC(=O)[C@H](CCC(=O)O)NC1=O [peptide 4] (H-SLEEEWAQIECEVWGRGCPS-NH2; linker 11-18 via X1)

Molecule: #SLEQEWaKIE C EVYGK C PPKKAyKWFERQLK‐amide (disulfide) [IM459, variant of S519 with several modifications, IR agonist]
ability to activate IR [2]: retains the ability to activate IR (agonist)

Molecule: #SLEEEWAQIE C EVYGR C PPSES‐amide (disulfide) [IM172N22, peptide representing the Site 2 part of IM459]
Kd ([2]; read-out: binding affinity): 3.1 nM

Kd [5]: 49 ± 6 nM
Molecule: CC[C@H](C)[C@H](NC(=O)[C@H](CCC(N)=O)NC(=O)[C@H](C)NC(=O)[C@H](Cc1c[nH]c2ccccc12)NC(=O)[C@H](CCC(=O)O)NC(=O)[C@H](CCC(=O)O)NC(=O)[C@H](CCC(=O)O)NC(=O)[C@H](CC(C)C)NC(=O)[C@@H](N)CO)C(=O)N[C@@H](CCC(=O)O)C(=O)N[C@@]1(C)CCCC=CCCC[C@@](C)(C(=O)N2CCC[C@H]2C(=O)N[C@@H](CO)C(N)=O)NC(=O)CNC(=O)[C@H](CCCNC(=N)N)NC(=O)CNC(=O)[C@H](Cc2c[nH]c3ccccc23)NC(=O)[C@H](C(C)C)NC(=O)[C@H](CCC(=O)O)NC1=O [peptide 2] (H-SLEEEWAQIE[S5]EVWGRG[S5]PS-NH2; staple 11-18)

Molecule: GSLDESFYDWFERQLGKK [S371]
agonistic or antagonistic activities [1]: did not detect any agonistic or antagonistic activities

Kd [5]: 15 ± 3 nM
Molecule: CC[C@H](C)[C@H](NC(=O)[C@H](CCC(N)=O)NC(=O)[C@H](C)NC(=O)[C@H](Cc1c[nH]c2ccccc12)NC(=O)[C@H](CCC(=O)O)NC(=O)[C@H](CCC(=O)O)NC(=O)[C@H](CCC(=O)O)NC(=O)[C@H](CC(C)C)NC(=O)[C@@H](N)CO)C(=O)N[C@@H](CCC(=O)O)C(=O)N[C@H]1CCCn2cc(nn2)C[C@@H](C(=O)N2CCC[C@H]2C(=O)N[C@@H](CO)C(N)=O)NC(=O)CNC(=O)[C@H](CCCNC(=N)N)NC(=O)CNC(=O)[C@H](Cc2c[nH]c3ccccc23)NC(=O)[C@H](C(C)C)NC(=O)[C@H](CCC(=O)O)NC1=O [peptide 3] (H-SLEEEWAQIE[Orn(N3)]EVWGRG[Pra]PS-NH2; triazole 11-18)

Kd [5]: 75 ± 29 nM
Molecule: CC[C@H](C)[C@H](NC(=O)[C@H](CCC(N)=O)NC(=O)[C@H](C)NC(=O)[C@H](Cc1c[nH]c2ccccc12)NC(=O)[C@H](CCC(=O)O)NC(=O)[C@H](CCC(=O)O)NC(=O)[C@H](CCC(=O)O)NC(=O)[C@H](CC(C)C)NC(=O)[C@@H](N)CO)C(=O)N[C@@H](CCC(=O)O)C(=O)N[C@H]1CSCCn2cc(nn2)COC[C@@H](C(=O)N2CCC[C@H]2C(=O)N[C@@H](CO)C(N)=O)NC(=O)CNC(=O)[C@H](CCCNC(=N)N)NC(=O)CNC(=O)[C@H](Cc2c[nH]c3ccccc23)NC(=O)[C@H](C(C)C)NC(=O)[C@H](CCC(=O)O)NC1=O [peptide 5] (H-SLEEEWAQIECEVWGRGSPS-NH2; linker 11-18 via X1)

Kd [5]: 3.9 ± 1 nM
Molecule: CC[C@H](C)[C@H](NC(=O)[C@H](CCC(N)=O)NC(=O)[C@H](C)NC(=O)[C@H](Cc1c[nH]c2ccccc12)NC(=O)[C@H](CCC(=O)O)NC(=O)[C@H](CCC(=O)O)NC(=O)[C@H](CCC(=O)O)NC(=O)[C@H](CC(C)C)NC(=O)[C@@H](N)CO)C(=O)N[C@@H](CCC(=O)O)C(=O)N[C@H]1CSSC[C@@H](C(=O)N2CCC[C@H]2C(=O)N[C@@H](CO)C(N)=O)NC(=O)CNC(=O)[C@H](CCCNC(=N)N)NC(=O)CNC(=O)[C@H](Cc2c[nH]c3ccccc23)NC(=O)[C@H](C(C)C)NC(=O)[C@H](CCC(=O)O)NC1=O [peptide 1] (H-SLEEEWAQIECEVWGRGCPS-NH2; disulfide 11-18)

Molecule: SLEEEWAQVE C EVYGRG C PSGSLDESFYDWFERQLG (disulfide) [S519, Site 2–Site 1 fusion peptide, IR agonist]
agonism / antagonism of IR [2]: did not show antagonistic effects and instead agonized IR
binding to IR [2]: very high affinity

Molecule: GSLDESFYDWFERQLGGGSGGSSLEEEWAQIQ C EVWGRG C PSY (disulfide) [S961, Site 1–linker–Site 2 fusion peptide with free C-terminus, IR antagonist]
binding affinities for IR [2]: native insulin‐like binding affinities
inhibition of the insulin effect on plasma glucose in mice [3]: fully inhibit
inhibition of insulin‐stimulated lipogenesis in cells [4]: fully inhibit

Molecule: GSLDESFYDWFERQLGGGSGGSSLEEEWAQIQSEVWGRGSPSY-NH2 [Cys → Ser in S661, S661 variant with cysteines mutated to serines, without the disulfide bridge]
change of antagonistic activity versus S661 ([1]; inhibition of insulin-stimulated IR phosphorylation in cells): eightfold decrease

Molecule: SLEEEWAQ-NH2 [N-terminal segment peptide of the Site 2 mimetics, without the cyclized part]
Kd ([2]; read-out: binding affinity): 900 nM

From PMC10909431 (Journal of Peptide Science, 2023)
